From the CheMixHub ionic liquid set
Values joined by “and” are separate entries in the source; they are usually repeats but may differ in a detail not shown here. Equal entries are not always repeated.

Test: xn = mol fraction of the nth substance listed

CCCC[n+]1ccn(C)c1.N#C[S-] + [Cl-].[Li+] + CN1CCCC1=O
298.15 K, 101 kPa
Conditions | viscosity [mPa·s]
x1 = 0.000959, x2 = 0.03815 | 2.65
x1 = 0.001063, x2 = 0.07221 | 3.61
x1 = 0.001192, x2 = 0.104 | 4.991
x1 = 0.002304, x2 = 0.07212 | 3.657
x1 = 0.002399, x2 = 0.03809 | 2.683
x1 = 0.00252, x2 = 0.1039 | 5.021
x1 = 0.003854, x2 = 0.03804 | 2.715
x1 = 0.003994, x2 = 0.072 | 3.706
x1 = 0.00415, x2 = 0.1037 | 5.048
x1 = 0.005535, x2 = 0.03797 | 2.75
x1 = 0.005737, x2 = 0.1036 | 5.082
x1 = 0.005932, x2 = 0.07186 | 3.734
x1 = 0.006974, x2 = 0.07178 | 3.765
x1 = 0.007127, x2 = 0.1034 | 5.104
x1 = 0.007392, x2 = 0.0379 | 2.777
x1 = 0.008668, x2 = 0.1032 | 5.141
x1 = 0.008714, x2 = 0.07165 | 3.796
x1 = 0.009327, x2 = 0.03783 | 2.805
x1 = 0.009861, x2 = 0.07157 | 3.834
x1 = 0.009986, x2 = 0.1031 | 5.166
x1 = 0.01105, x2 = 0.03776 | 2.846
x1 = 0.01164, x2 = 0.1029 | 5.198
x1 = 0.01191, x2 = 0.07142 | 3.877
x1 = 0.01372, x2 = 0.03766 | 2.869

CCOS(=O)(=O)[O-].CC[N+]1(C)CCCC1 + O
101 kPa
Conditions | viscosity [mPa·s]
313.15 K, x2 = 0 | 78
313.15 K, x2 = 0.105 | 65
318.15 K, x2 = 0 | 65
318.15 K, x2 = 0.7542 | 8.9
323.15 K, x2 = 0.7542 | 7.7
333.15 K, x2 = 0.9652 | 0.99
338.15 K, x2 = 0.6505 | 7.7
338.15 K, x2 = 0.9652 | 0.98
343.15 K, x2 = 0.6505 | 6.6
343.15 K, x2 = 0.9652 | 0.98

CCCCC[n+]1ccccc1.N#C[N-]C#N + O
100 kPa
Conditions | electrical conductivity [S/m] | viscosity [mPa·s]
298.15 K, x1 = 0.9354 | 0.667 | –
303.15 K, x1 = 0.9354 | 0.833 | –
308.15 K, x1 = 0.9514 | – | 28.8
308.15 K, x1 = 0.9515 | 0.979 | –
308.15 K, x1 = 0.968 | – | 29.6
313.15 K, x1 = 0.9196 | – | 22.92
313.15 K, x1 = 0.9198 | 1.23 | –
318.15 K, x1 = 0.9681 | 1.27 | –
318.15 K, x2 = 0.01457 | 1.23 | –
323.15 K, x1 = 0.9196 | – | 15.16
323.15 K, x1 = 0.9198 | 1.67 | –
323.15 K, x1 = 0.968 | – | 16.91
323.15 K, x1 = 0.9681 | 1.5 | –
323.15 K, x2 = 0.01492 | – | 17.54
328.15 K, x1 = 0.9351 | – | 14.21
328.15 K, x1 = 0.9354 | 1.82 | –
328.15 K, x2 = 0.01457 | 1.65 | –
328.15 K, x2 = 0.01492 | – | 15.11
338.15 K, x1 = 0.9514 | – | 11.11
338.15 K, x1 = 0.9515 | 2.23 | –

CC(=O)[O-].CC[n+]1ccn(C)c1 + CCO
Conditions | electrical conductivity [S/m] | viscosity [mPa·s]
278.15 K, 101 kPa, x2 = 0.201 | – | 264
278.15 K, 101 kPa, x2 = 0.9 | – | 3.396
288.15 K, 101 kPa, x2 = 0 | – | 284
288.15 K, 101 kPa, x2 = 0.1 | – | 206.6
288.15 K, 101 kPa, x2 = 0.8 | – | 5.15
293.15 K, 101.3 kPa, x2 = 0 | 0.243 | –
293.15 K, 101.3 kPa, x2 = 0.0733 | 0.247 | –
293.15 K, 101.3 kPa, x2 = 0.1229 | 0.269 | –
293.15 K, 101.3 kPa, x2 = 0.2965 | 0.433 | –
293.15 K, 101.3 kPa, x2 = 0.4286 | 0.63 | –
293.15 K, 101.3 kPa, x2 = 0.5373 | 0.991 | –
293.15 K, 101.3 kPa, x2 = 0.7309 | 1.447 | –
293.15 K, 101.3 kPa, x2 = 0.7625 | 1.539 | –
293.15 K, 101.3 kPa, x2 = 0.7754 | 1.615 | –
293.15 K, 101.3 kPa, x2 = 0.8081 | 1.329 | –
293.15 K, 101.3 kPa, x2 = 0.8897 | 0.71 | –
293.15 K, 101.3 kPa, x2 = 0.9163 | 0.505 | –
293.15 K, 101.3 kPa, x2 = 0.9299 | 0.404 | –
293.15 K, 101.3 kPa, x2 = 0.9383 | 0.335 | –
293.15 K, 101.3 kPa, x2 = 0.9494 | 0.252 | –
298.15 K, 101 kPa, x2 = 0.4002 | – | 31.8
298.15 K, 101 kPa, x2 = 0.5001 | – | 20.04
298.15 K, 101 kPa, x2 = 0.8666 | – | 2.67
308.15 K, 101 kPa, x2 = 0.2999 | – | 32.06
308.15 K, 101 kPa, x2 = 0.6 | – | 9.27
308.15 K, 101 kPa, x2 = 0.8 | – | 3.398
313.15 K, 101 kPa, x2 = 0.1059 | – | 43.5
313.15 K, 101 kPa, x2 = 0.2471 | – | 28.5
313.15 K, 101 kPa, x2 = 0.5572 | – | 9.24
313.15 K, 101 kPa, x2 = 0.7494 | – | 3.89
318.15 K, 101 kPa, x2 = 0.1 | – | 39.7
318.15 K, 101 kPa, x2 = 0.201 | – | 29.99
318.15 K, 101 kPa, x2 = 0.2999 | – | 22.19
318.15 K, 101 kPa, x2 = 0.4002 | – | 15.76
318.15 K, 101 kPa, x2 = 0.6 | – | 7.27
318.15 K, 101 kPa, x2 = 0.9 | – | 1.591
328.15 K, 101 kPa, x2 = 0 | – | 30.3
328.15 K, 101 kPa, x2 = 0.7 | – | 3.833
338.15 K, 101 kPa, x2 = 0 | – | 21.85
338.15 K, 101 kPa, x2 = 0.8 | – | 2.049
343.15 K, 101 kPa, x2 = 0.1059 | – | 14.96
343.15 K, 101 kPa, x2 = 0.3504 | – | 8.69
343.15 K, 101 kPa, x2 = 0.4165 | – | 7.31

CC[S+](CC)CCOCC[S+](CC)CC.O=S(=O)([N-]S(=O)(=O)C(F)(F)F)C(F)(F)F.O=S(=O)([N-]S(=O)(=O)C(F)(F)F)C(F)(F)F + CC[n+]1ccn(C)c1.N#C[N-]C#N + O=S(=O)([N-]S(=O)(=O)C(F)(F)F)C(F)(F)F.[Li+]
100 kPa, x1 = 0.1609, x2 = 0.7379
Conditions | electrical conductivity [S/m]
298 K | 0.637
303 K | 0.742
313 K | 0.987
323 K | 1.28
333 K | 1.64
343 K | 2

CCCC[n+]1ccn(C)c1.N#C[S-] + c1ccsc1
viscosity [mPa·s], 100 kPa
Conditions | x2 = 0 | x2 = 0.103 | x2 = 0.143 | x2 = 0.246 | x2 = 0.61 | x2 = 0.701
298.15 K | 57.4 | 47.2 | 42.9 | 32 | 13.36 | 9.93
308.15 K | 37.4 | 31.4 | 28.7 | 22 | 9.94 | 7.57
318.15 K | 25.8 | 22.1 | 20.4 | 15.96 | 7.67 | 5.96
328.15 K | 18.7 | 16.22 | 15.07 | 12.02 | 6.1 | 4.83

CCCC[n+]1ccn(C)c1.N#C[N-]C#N + O=[N+]([O-])[O-].[Li+]
electrical conductivity [S/m], 101 kPa
Conditions | x1 = 0.7634 | x1 = 0.8104 | x1 = 0.859 | x1 = 0.9137 | x1 = 0.9799 | x1 = 1
288.15 K | – | 0.155 | 0.246 | 0.377 | 0.599 | 0.596
298.15 K | 0.193 | 0.272 | 0.417 | 0.612 | 0.924 | 0.925
333.15 K | 0.902 | 1.17 | 1.47 | 1.95 | 2.6 | 2.77

CC[n+]1ccn(C)c1.CS(=O)(=O)[O-] + CS(C)=O
101 kPa, x1 = 0.3333
Conditions | viscosity [mPa·s]
283.15 K | 5.66
288.15 K | 5.04
293.15 K | 4.47
298.15 K | 3.94
303.15 K | 3.47
308.15 K | 3.04
313.15 K | 2.66
318.15 K | 2.33
323.15 K | 2.05
328.15 K | 1.81
333.15 K | 1.63
338.15 K | 1.49
343.15 K | 1.4
348.15 K | 1.36
353.15 K | 1.33

CCCC[n+]1ccn(C)c1.N#C[N-]C#N + O=S(=O)([N-]S(=O)(=O)C(F)(F)F)C(F)(F)F.[Li+]
electrical conductivity [S/m], 101 kPa
Conditions | x1 = 0.8953 | x1 = 0.9103 | x1 = 0.942 | x1 = 0.9606 | x1 = 0.9799 | x1 = 1
288.15 K | – | 0.381 | 0.469 | 0.538 | 0.595 | 0.596
298.15 K | 0.519 | 0.613 | 0.743 | 0.848 | 0.919 | 0.925
333.15 K | 1.67 | 1.88 | 2.17 | 2.46 | 2.56 | 2.77

CCCC[N+](C)(CCCC)CCCC.[Cl-] + O
viscosity
Conditions | 293.15 K | 298.15 K | 303.15 K | 308.15 K | 313.15 K
100 kPa, x1 = 0.0003603 | 1.01 mPa·s | 0.904 mPa·s | 0.809 mPa·s | 0.726 mPa·s | 0.661 mPa·s
100 kPa, x1 = 0.0007023 | 1.024 mPa·s | 0.914 mPa·s | 0.815 mPa·s | 0.735 mPa·s | 0.671 mPa·s
100 kPa, x1 = 0.001062 | 1.035 mPa·s | 0.93 mPa·s | 0.829 mPa·s | 0.744 mPa·s | 0.686 mPa·s
100 kPa, x1 = 0.001422 | 1.045 mPa·s | 0.941 mPa·s | 0.839 mPa·s | 0.756 mPa·s | 0.694 mPa·s
101.3 kPa, x1 = 0.0003423 | 1.011 mPa·s | 0.904 mPa·s | 0.806 mPa·s | 0.729 mPa·s | 0.662 mPa·s
101.3 kPa, x1 = 0.0007203 | 1.023 mPa·s and 0.98 mPa·s and 1.04 mPa·s | 0.914 mPa·s and 0.88 mPa·s and 0.93 mPa·s | 0.812 mPa·s and 0.74 mPa·s and 0.83 mPa·s | 0.737 mPa·s and 0.65 mPa·s and 0.75 mPa·s | 0.672 mPa·s and 0.67 mPa·s
101.3 kPa, x1 = 0.001062 | 1.036 mPa·s | 0.931 mPa·s | 0.826 mPa·s | 0.747 mPa·s | 0.686 mPa·s
101.3 kPa, x1 = 0.00144 | 1.044 mPa·s and 0.97 mPa·s and 1.08 mPa·s | 0.942 mPa·s and 0.89 mPa·s and 0.96 mPa·s | 0.84 mPa·s and 0.77 mPa·s and 0.86 mPa·s | 0.759 mPa·s and 0.77 mPa·s | 0.695 mPa·s and 0.7 mPa·s

CCCC[P+](CCCC)(CCCC)CCCC.CS(=O)(=O)[O-] + c1c[nH]cn1
101.33 kPa, x1 = 0.5
Conditions | viscosity [mPa·s]
313.05 K | 100
353.05 K | 21.6
